{
  "source": "patent US11272709B2",
  "about": "“Amidine substituted benzoyl derivatives useful as herbicides” (Syngenta Participations AG, priority 2018, dated 2022)",
  "assay_type_in_all_cases": "in vivo",
  "settings_in_all_cases": "500 g/h, evaluated after 13 days",
  "key": {"[1]": {"tested_on": "Amaranthus retoflexus (AMARE)", "assay": "Pre-emergence herbicidal glasshouse test, Amaranthus retoflexus (AMARE)", "description": "(§1) Seeds of a variety of test species are sown in standard soil in pots (Lolium perenne (LOLPE), Amaranthus retoflexus (AMARE), Abutilon theophrasti (ABUTH), Setaria faberi (SETFA), Echinochloa crus-galli (ECHCG), Ipomoea hederacea (IPOHE)). After cultivation for one day (pre-emergence) or after 8 days cultivation (post-emergence) under controlled conditions in a glasshouse (at 24/16° C., day/night; 14 hours light; 65% humidity), the plants are sprayed with an aqueous spray solution derived from the formulation of the technical active ingredient in acetone/water (50:50) solution containing 0.5% Tween 20 (polyoxyethelyene sorbitan monolaurate, CAS RN 9005-64-5). Compounds are applied at 500 g/h unless otherwise indicated. The test plants are then grown in a glasshouse under controlled conditions in a glasshouse (at 24/16° C., day/night; 14 hours light; 65% humidity) and watered twice daily. After 13 days for pre and post-emergence, the test is evaluated for the percentage damage caused to the plant. The biological activities are shown in the following table on a five point scale (5=80-100%; 4=60-79%; 3=40-59%; 2=20-39%; 1=0-19%)."}, "[2]": {"tested_on": "Abutilon theophrasti (ABUTH)", "assay": "Pre-emergence herbicidal glasshouse test, Abutilon theophrasti (ABUTH)", "description": "as §1"}, "[3]": {"tested_on": "Setaria faberi (SETFA)", "assay": "Pre-emergence herbicidal glasshouse test, Setaria faberi (SETFA)", "description": "as §1"}, "[4]": {"tested_on": "Echinochloa crus-galli (ECHCG)", "assay": "Pre-emergence herbicidal glasshouse test, Echinochloa crus-galli (ECHCG)", "description": "as §1"}, "[5]": {"tested_on": "Ipomoea hederacea (IPOHE)", "assay": "Pre-emergence herbicidal glasshouse test, Ipomoea hederacea (IPOHE)", "description": "as §1"}, "[6]": {"tested_on": "Amaranthus retoflexus (AMARE)", "assay": "Post-emergence herbicidal glasshouse test, Amaranthus retoflexus (AMARE)", "description": "as §1"}, "[7]": {"tested_on": "Abutilon theophrasti (ABUTH)", "assay": "Post-emergence herbicidal glasshouse test, Abutilon theophrasti (ABUTH)", "description": "as §1"}, "[8]": {"tested_on": "Setaria faberi (SETFA)", "assay": "Post-emergence herbicidal glasshouse test, Setaria faberi (SETFA)", "description": "as §1"}, "[9]": {"tested_on": "Echinochloa crus-galli (ECHCG)", "assay": "Post-emergence herbicidal glasshouse test, Echinochloa crus-galli (ECHCG)", "description": "as §1"}, "[10]": {"tested_on": "Ipomoea hederacea (IPOHE)", "assay": "Post-emergence herbicidal glasshouse test, Ipomoea hederacea (IPOHE)", "description": "as §1"}},
  "data": [
    {"smiles": "Cc1nnc(NC(=O)c2ccc(S(C)(=O)=O)c(N=CN(C)C(C)C)c2C)o1", "note": "[Compound 2.144]", "values": [
      {"measurement": "PRE Application AMARE, percentage damage (five point scale)", "setting": "[1]", "result": "5 (5=80-100%)"},
      {"measurement": "PRE Application ABUTH, percentage damage (five point scale)", "setting": "[2]", "result": "5 (5=80-100%)"},
      {"measurement": "PRE Application SETFA, percentage damage (five point scale)", "setting": "[3]", "result": "5 (5=80-100%)"},
      {"measurement": "PRE Application ECHCG, percentage damage (five point scale)", "setting": "[4]", "result": "5 (5=80-100%)"},
      {"measurement": "PRE Application IPOHE, percentage damage (five point scale)", "setting": "[5]", "result": "3 (3=40-59%)"},
      {"measurement": "POST Application AMARE, percentage damage (five point scale)", "setting": "[6]", "result": "5 (5=80-100%)"},
      {"measurement": "POST Application ABUTH, percentage damage (five point scale)", "setting": "[7]", "result": "5 (5=80-100%)"},
      {"measurement": "POST Application SETFA, percentage damage (five point scale)", "setting": "[8]", "result": "5 (5=80-100%)"},
      {"measurement": "POST Application ECHCG, percentage damage (five point scale)", "setting": "[9]", "result": "5 (5=80-100%)"},
      {"measurement": "POST Application IPOHE, percentage damage (five point scale)", "setting": "[10]", "result": "4 (4=60-79%)"}
    ]},
    {"smiles": "CC(=Nc1c(C(F)(F)F)ccc(C(=O)Nc2nnc(C)o2)c1Cl)N(C)C", "note": "[Compound 2.148]", "values": [
      {"measurement": "PRE Application AMARE, percentage damage (five point scale)", "setting": "[1]", "result": "5 (5=80-100%)"},
      {"measurement": "PRE Application ABUTH, percentage damage (five point scale)", "setting": "[2]", "result": "5 (5=80-100%)"},
      {"measurement": "PRE Application SETFA, percentage damage (five point scale)", "setting": "[3]", "result": "5 (5=80-100%)"},
      {"measurement": "PRE Application ECHCG, percentage damage (five point scale)", "setting": "[4]", "result": "5 (5=80-100%)"},
      {"measurement": "PRE Application IPOHE, percentage damage (five point scale)", "setting": "[5]", "result": "5 (5=80-100%)"},
      {"measurement": "POST Application AMARE, percentage damage (five point scale)", "setting": "[6]", "result": "5 (5=80-100%)"},
      {"measurement": "POST Application ABUTH, percentage damage (five point scale)", "setting": "[7]", "result": "5 (5=80-100%)"},
      {"measurement": "POST Application SETFA, percentage damage (five point scale)", "setting": "[8]", "result": "5 (5=80-100%)"},
      {"measurement": "POST Application ECHCG, percentage damage (five point scale)", "setting": "[9]", "result": "5 (5=80-100%)"},
      {"measurement": "POST Application IPOHE, percentage damage (five point scale)", "setting": "[10]", "result": "3 (3=40-59%)"}
    ]},
    {"smiles": "Cc1c(C(=O)C2=C(O)CCCC2=O)ccc(C(F)(F)F)c1N=CN(C)C", "note": "[Compound 3.017]", "values": [
      {"measurement": "PRE Application AMARE, percentage damage (five point scale)", "setting": "[1]", "result": "5 (5=80-100%)"},
      {"measurement": "PRE Application ABUTH, percentage damage (five point scale)", "setting": "[2]", "result": "5 (5=80-100%)"},
      {"measurement": "PRE Application SETFA, percentage damage (five point scale)", "setting": "[3]", "result": "4 (4=60-79%)"},
      {"measurement": "PRE Application ECHCG, percentage damage (five point scale)", "setting": "[4]", "result": "5 (5=80-100%)"},
      {"measurement": "PRE Application IPOHE, percentage damage (five point scale)", "setting": "[5]", "result": "5 (5=80-100%)"},
      {"measurement": "POST Application AMARE, percentage damage (five point scale)", "setting": "[6]", "result": "3 (3=40-59%)"},
      {"measurement": "POST Application ABUTH, percentage damage (five point scale)", "setting": "[7]", "result": "5 (5=80-100%)"},
      {"measurement": "POST Application SETFA, percentage damage (five point scale)", "setting": "[8]", "result": "5 (5=80-100%)"},
      {"measurement": "POST Application ECHCG, percentage damage (five point scale)", "setting": "[9]", "result": "5 (5=80-100%)"},
      {"measurement": "POST Application IPOHE, percentage damage (five point scale)", "setting": "[10]", "result": "5 (5=80-100%)"}
    ]},
    {"smiles": "Cc1c(C(=O)C2=C(O)CCCC2=O)ccc(S(C)(=O)=O)c1N=CN(C)C", "note": "[Compound 3.025]", "values": [
      {"measurement": "PRE Application AMARE, percentage damage (five point scale)", "setting": "[1]", "result": "5 (5=80-100%)"},
      {"measurement": "PRE Application ABUTH, percentage damage (five point scale)", "setting": "[2]", "result": "5 (5=80-100%)"},
      {"measurement": "PRE Application SETFA, percentage damage (five point scale)", "setting": "[3]", "result": "4 (4=60-79%)"},
      {"measurement": "PRE Application ECHCG, percentage damage (five point scale)", "setting": "[4]", "result": "5 (5=80-100%)"},
      {"measurement": "PRE Application IPOHE, percentage damage (five point scale)", "setting": "[5]", "result": "4 (4=60-79%)"},
      {"measurement": "POST Application AMARE, percentage damage (five point scale)", "setting": "[6]", "result": "5 (5=80-100%)"},
      {"measurement": "POST Application ABUTH, percentage damage (five point scale)", "setting": "[7]", "result": "5 (5=80-100%)"},
      {"measurement": "POST Application SETFA, percentage damage (five point scale)", "setting": "[8]", "result": "5 (5=80-100%)"},
      {"measurement": "POST Application ECHCG, percentage damage (five point scale)", "setting": "[9]", "result": "5 (5=80-100%)"},
      {"measurement": "POST Application IPOHE, percentage damage (five point scale)", "setting": "[10]", "result": "5 (5=80-100%)"}
    ]},
    {"smiles": "CN(C)C=Nc1c(C(F)(F)F)ccc(C(=O)C2=C(O)CCCC2=O)c1Cl", "note": "[Compound 3.049]", "values": [
      {"measurement": "PRE Application AMARE, percentage damage (five point scale)", "setting": "[1]", "result": "5 (5=80-100%)"},
      {"measurement": "PRE Application ABUTH, percentage damage (five point scale)", "setting": "[2]", "result": "5 (5=80-100%)"},
      {"measurement": "PRE Application SETFA, percentage damage (five point scale)", "setting": "[3]", "result": "5 (5=80-100%)"},
      {"measurement": "PRE Application ECHCG, percentage damage (five point scale)", "setting": "[4]", "result": "5 (5=80-100%)"},
      {"measurement": "PRE Application IPOHE, percentage damage (five point scale)", "setting": "[5]", "result": "5 (5=80-100%)"},
      {"measurement": "POST Application AMARE, percentage damage (five point scale)", "setting": "[6]", "result": "5 (5=80-100%)"},
      {"measurement": "POST Application ABUTH, percentage damage (five point scale)", "setting": "[7]", "result": "5 (5=80-100%)"},
      {"measurement": "POST Application SETFA, percentage damage (five point scale)", "setting": "[8]", "result": "5 (5=80-100%)"},
      {"measurement": "POST Application ECHCG, percentage damage (five point scale)", "setting": "[9]", "result": "5 (5=80-100%)"},
      {"measurement": "POST Application IPOHE, percentage damage (five point scale)", "setting": "[10]", "result": "5 (5=80-100%)"}
    ]},
    {"smiles": "CN(C)C=Nc1c(S(C)(=O)=O)ccc(C(=O)C2=C(O)CCCC2=O)c1Cl", "note": "[Compound 3.057]", "values": [
      {"measurement": "PRE Application AMARE, percentage damage (five point scale)", "setting": "[1]", "result": "5 (5=80-100%)"},
      {"measurement": "PRE Application ABUTH, percentage damage (five point scale)", "setting": "[2]", "result": "5 (5=80-100%)"},
      {"measurement": "PRE Application SETFA, percentage damage (five point scale)", "setting": "[3]", "result": "5 (5=80-100%)"},
      {"measurement": "PRE Application ECHCG, percentage damage (five point scale)", "setting": "[4]", "result": "5 (5=80-100%)"},
      {"measurement": "PRE Application IPOHE, percentage damage (five point scale)", "setting": "[5]", "result": "5 (5=80-100%)"},
      {"measurement": "POST Application AMARE, percentage damage (five point scale)", "setting": "[6]", "result": "5 (5=80-100%)"},
      {"measurement": "POST Application ABUTH, percentage damage (five point scale)", "setting": "[7]", "result": "5 (5=80-100%)"},
      {"measurement": "POST Application SETFA, percentage damage (five point scale)", "setting": "[8]", "result": "5 (5=80-100%)"},
      {"measurement": "POST Application ECHCG, percentage damage (five point scale)", "setting": "[9]", "result": "5 (5=80-100%)"},
      {"measurement": "POST Application IPOHE, percentage damage (five point scale)", "setting": "[10]", "result": "5 (5=80-100%)"}
    ]}
  ]
}
